# Peptide text beside a SMILES is read from it. * marks the point of attachment. Dicyclohexylacetyl = O=C(C(C1CCCCC1)C1CCCCC1)*; Butanoyl(2,2-Me2) = CCC(C)(C)C(=O)*; Octanoyl = CCCCCCCC(=O)*; X1 = CCCCC(CC)C(=O)*
# System: C. neoformans ATCC 32045
# Assay type: cell-based
# Details: ATCC 32045, 72 h
# Description: C. neoformans ATCC 32045 cultures were maintained on yeast medium (YM; Difco Laboratories, Detroit, Mich.) agar plates at 4° C. Prior to the assay, the cultures were grown on agar plates and incubated for 72 hrs at 26° C. Two colonies of these newly grown fungal cultures were then inoculated in 5 ml of 2×YM broth, vortexed, and diluted 10-fold in 2×YM broth, for an approximate final assay concentration of 1×105 to 5×10^5 CFU/ml. In 96-well tissue culture plates, fungal suspensions in 2×YM broth were added to the peptides dispensed at concentrations ranging from 1 mg/ml to 1 μg/ml derived from serial twofold dilutions in sterile water. The plates were then incubated for 72 hrs at 26° C. The relative percent growth of the fungi found for each test sample was determined by the optical density at 620 nm (OD620) by using a Titertek Multiskan Plus apparatus. […] The IC50 were calculated by using a sigmoidal curve-fitting software program (Graphpad Prism; ISI Software, San Diego, Calif.).
SMILES,average IC50 [µg/mL],average MIC [µg/mL]
"N=C(N)NCCC[C@H](NC(=O)[C@H](CCCNC(=N)N)NC(=O)[C@H](Cc1c[nH]c2ccccc12)NC(=O)[C@H](Cc1ccccc1)NC(=O)[C@H](CCCNC(=N)N)NC(=O)[C@H](CCCNC(=N)N)NC(=O)[C@H](Cc1c[nH]c2ccccc12)NC(=O)[C@H](Cc1ccccc1)NC(=O)C(C1CCCCC1)C1CCCCC1)C(N)=O [VS1-64, dicyclohexylacetyl FWRRFWRR-NH2] (Dicyclohexylacetyl-FWRRFWRR-NH2)",6,32
"CC[C@H](C)[C@H](NC(=O)[C@H](CCCNC(=N)N)NC(=O)[C@H](CCCNC(=N)N)NC(=O)[C@H](Cc1c[nH]c2ccccc12)NC(=O)[C@@H]1CCCN1)C(=O)N[C@@H](CCCNC(=N)N)C(=O)N[C@@H](CCCNC(=N)N)C(N)=O [VS1-35, PWRRIRR-NH2] (H-PWRRIRR-NH2; N-terminus assumed)",12,32
"CC[C@H](C)[C@H](NC(=O)[C@H](CCCNC(=N)N)NC(=O)[C@H](CCCCN)NC(=O)[C@H](CCCNC(=N)N)NC(=O)[C@H](Cc1c[nH]c2ccccc12)NC(=O)[C@H](Cc1ccccc1)NC(=O)[C@@H]1CCCN1)C(=O)N[C@@H](CCCNC(=N)N)C(=O)N[C@@H](CCCNC(=N)N)C(N)=O [VS1-28, PFWRKRIRR-NH2] (H-PFWRKRIRR-NH2; N-terminus assumed)",8,32
"CC(C)C[C@H](NC(=O)[C@H](CCCCN)NC(=O)[C@H](CCCCN)NC(=O)[C@H](CCCNC(=N)N)NC(=O)[C@H](Cc1c[nH]c2ccccc12)NC(=O)[C@H](Cc1ccccc1)NC(=O)[C@@H]1CCCN1)C(=O)N[C@@H](CCCCN)C(=O)N[C@@H](CCCNC(=N)N)C(N)=O [VS1-30, PFWRKKLKR-NH2] (H-PFWRKKLKR-NH2; N-terminus assumed)",10,32
"CCCCCCCC(=O)N[C@@H](Cc1ccccc1)C(=O)N[C@@H](Cc1c[nH]c2ccccc12)C(=O)N[C@@H](CCCNC(=N)N)C(=O)N[C@H](C(=O)N[C@@H](CCCNC(=N)N)C(=O)N[C@H](C(=O)N[C@@H](CCCNC(=N)N)C(=O)N[C@@H](CCCNC(=N)N)C(N)=O)[C@@H](C)CC)[C@@H](C)CC [VS1-55, octanoyl FWRIRIRR-NH2] (Octanoyl-FWRIRIRR-NH2)",4,16
"CC[C@H](C)[C@H](NC(=O)[C@H](CCCNC(=N)N)NC(=O)[C@@H](NC(=O)[C@H](CCCNC(=N)N)NC(=O)[C@H](Cc1c[nH]c2ccccc12)NC(=O)[C@H](Cc1ccccc1)NC(=O)C(C)(C)CC)[C@@H](C)CC)C(=O)N[C@@H](CCCNC(=N)N)C(=O)N[C@@H](CCCNC(=N)N)C(N)=O [VS1-57, 2,2-dimethylbutanoyl FWRIRIRR-NH2] ({Butanoyl(2,2-Me2)}-FWRIRIRR-NH2)",2,4

# Continued, values first:
average IC50 [µg/mL],average MIC [µg/mL],SMILES
4,16,"CC[C@H](C)[C@H](NC(=O)[C@H](CC(N)=O)NC(=O)[C@H](CCCNC(=N)N)NC(=O)[C@H](Cc1c[nH]c2ccccc12)NC(=O)[C@@H](N)Cc1ccccc1)C(=O)N[C@@H](CCCNC(=N)N)C(=O)N[C@@H](CCCCN)C(=O)N[C@@H](Cc1c[nH]c2ccccc12)C(=O)N[C@@H](CCCNC(=N)N)C(N)=O [VS1-20, FWRNIRKWR-NH2] (H-FWRNIRKWR-NH2; N-terminus assumed)"
8,32,"CC[C@H](C)[C@H](NC(=O)[C@H](CCCNC(=N)N)NC(=O)[C@H](C)NC(=O)[C@H](CCCNC(=N)N)NC(=O)[C@H](Cc1c[nH]c2ccccc12)NC(=O)[C@H](Cc1ccccc1)NC(=O)[C@@H]1CCCN1)C(=O)N[C@@H](CCCNC(=N)N)C(=O)N[C@@H](CCCNC(=N)N)C(N)=O [VS1-27, PFWRARIRR-NH2] (H-PFWRARIRR-NH2; N-terminus assumed)"
14,62,"CC[C@H](C)[C@H](NC(=O)[C@H](CCCNC(=N)N)NC(=O)[C@@H](NC(=O)[C@H](CCCNC(=N)N)NC(=O)[C@H](Cc1c[nH]c2ccccc12)NC(=O)[C@H](Cc1ccccc1)NC(=O)C(C1CCCCC1)C1CCCCC1)[C@@H](C)CC)C(=O)N[C@@H](CCCNC(=N)N)C(=O)N[C@@H](CCCNC(=N)N)C(N)=O [VS1-59, dicyclohexylacetyl FWRIRIRR-NH2] (Dicyclohexylacetyl-FWRIRIRR-NH2)"
4,16,"CC[C@H](C)[C@H](NC(=O)[C@H](CCCNC(=N)N)NC(=O)[C@H](Cc1c[nH]c2ccccc12)NC(=O)[C@@H](N)Cc1ccccc1)C(=O)N[C@@H](CCCNC(=N)N)C(=O)N[C@@H](CCCCN)C(=O)N[C@@H](Cc1c[nH]c2ccccc12)C(=O)N[C@@H](CCCNC(=N)N)C(N)=O [VS1-21, FWRIRKWR-NH2] (H-FWRIRKWR-NH2; N-terminus assumed)"
3,8,"CCCCC(CC)C(=O)N1CCC[C@H]1C(=O)N[C@@H](Cc1ccccc1)C(=O)N[C@@H](Cc1c[nH]c2ccccc12)C(=O)N[C@@H](CCCNC(=N)N)C(=O)N[C@H](C(=O)N[C@@H](CCCNC(=N)N)C(=O)N[C@H](C(=O)N[C@@H](CCCNC(=N)N)C(=O)N[C@@H](CCCNC(=N)N)C(N)=O)[C@@H](C)CC)[C@@H](C)CC (stereo partly drawn) [VS1-51, 2-ethylhexanoyl PFWRIRIRR-NH2] (X1-PFWRIRIRR-NH2)"
11,62,"CC[C@H](C)[C@H](NC(=O)[C@H](CCCCN)NC(=O)[C@H](CCCNC(=N)N)NC(=O)[C@H](CCCNC(=N)N)NC(=O)[C@H](Cc1c[nH]c2ccccc12)NC(=O)[C@@H]1CCCN1)C(=O)N[C@@H](CCCNC(=N)N)C(=O)N[C@@H](CCCNC(=N)N)C(N)=O [VS1-36, PWRRKIRR-NH2] (H-PWRRKIRR-NH2; N-terminus assumed)"
2,8,"CC[C@H](C)[C@H](NC(=O)[C@H](CCCNC(=N)N)NC(=O)[C@@H](NC(=O)[C@H](CCCNC(=N)N)NC(=O)[C@H](Cc1c[nH]c2ccccc12)NC(=O)[C@@H]1CCCN1)[C@@H](C)CC)C(=O)N[C@@H](CCCNC(=N)N)C(=O)N[C@@H](CCCNC(=N)N)C(N)=O [VS1-34, PWRIRIRR-NH2] (H-PWRIRIRR-NH2; N-terminus assumed)"
9,32,"CC[C@H](C)[C@H](NC(=O)[C@H](CCCNC(=N)N)NC(=O)[C@H](CCCNC(=N)N)NC(=O)[C@H](CCCNC(=N)N)NC(=O)[C@H](Cc1c[nH]c2ccccc12)NC(=O)[C@H](Cc1ccccc1)NC(=O)[C@@H]1CCCN1)C(=O)N[C@@H](CCCNC(=N)N)C(=O)N[C@@H](CCCNC(=N)N)C(N)=O [VS1-32, PFWRRRIRR-NH2] (H-PFWRRRIRR-NH2; N-terminus assumed)"
6,32,"CC[C@H](C)[C@H](NC(=O)[C@H](CCCNC(=N)N)NC(=O)[C@H](CCC(N)=O)NC(=O)[C@H](CCCNC(=N)N)NC(=O)[C@H](Cc1c[nH]c2ccccc12)NC(=O)[C@H](Cc1ccccc1)NC(=O)[C@@H]1CCCN1)C(=O)N[C@@H](CCCNC(=N)N)C(=O)N[C@@H](CCCNC(=N)N)C(N)=O [VS1-25, PFWRQRIRR-NH2] (H-PFWRQRIRR-NH2; N-terminus assumed)"

# From patent US7960339B2, “Antimicrobial peptides” (Österreichische Akademie der Wissenschaften, priority 2006, dated 2011)
